Data as given in ChEMBL document CHEMBL1157276, “Halogenated monoterpenes from plocamium costatum and their biological activity1” (1999).

Tests used:
Format in all cases: functional
Amphibalanus amphitrite [1] = test: Antifouling activity against cypris larvae at 10 ug/cm'2
Amphibalanus amphitrite [2] = test: Antifouling activity against cypris larvae at 0.1 ug/cm'2
Amphibalanus amphitrite [3] = test: Antifouling activity against cypris larvae at 1 ug/cm'2
Amphibalanus amphitrite [4] = test: Antifouling activity against cypris larvae at 0.01 ug/cm'2

Structure (SMILES) | Activity (Amphibalanus amphitrite [1]) | Activity (Amphibalanus amphitrite [2]) | Activity (Amphibalanus amphitrite [3]) | Activity (Amphibalanus amphitrite [4])
C=C(C)C(Cl)C/C=C(\C)C(Cl)CBr (configuration not stated) | 58% | 52% | 53% | 57%
C=CC(C)(O)CCCC(C)CCCC(C)CCCC(C)C (configuration not stated) | 13% | 54% | 23% | 43%
C[C@](Cl)(/C=C/[C@H](Cl)[C@](C)(Cl)/C=C/Br)C(Br)Br | 2.2% | 54% | 37% | 42%
